For this assay, the system named is Osteoclast. Nature of the assay: Bone resorption activity assessed as inhibition of PGE2-stimulated pit formation in ddY mouse osteoclasts. It counts as functional, cell-based.

Active and inactive are the calls of the source. The calls are words filed in the database; no cut-off is given here.

`CCOC(=O)/C=C/C=C1\OC(/C=C/c2ccccc2)=Nc2c1oc1ccc(Br)cc21`: the outcome was Active.
Take `O=C/C=C1\OC(/C=C/c2ccccc2)=Nc2c1oc1ccc(Br)cc21`: the outcome was inactive.
The value for `C[C@]12CC[C@@H]3c4ccc(O)cc4CC[C@H]3[C@@H]1CC[C@@H]2O` was “Active”.

(Values after ChEMBL document CHEMBL1139711, “A novel oxazine ring closure reaction affording (Z)-((E)-2-styrylbenzo[b]furo[3,2-d][1,3]oxazin-4-ylideno)acetaldehydes and their anti-osteoclastic bone resorption activity” (Bioorg Med Chem Lett, 2006).)
